Test [1] has as its system acute myocardial infarction injury. As to the kind of experiment: Acute myocardial infarction injury (ischemia/reperfusion) in a rabbit model. It counts as in vivo, New Zealand white rabbits. The following applies: 30 min ischemia, 3 h reperfusion, IV infusion, compared to the control (vehicle alone) group. The method, then: The effects of a combination of aromatic-cationic peptides and a cardiovascular agent in protecting against an acute myocardial infarction injury in a rabbit model are investigated.
New Zealand white rabbits are used in this study. The rabbits are males and >10 weeks in age. Environmental controls in the animal rooms are set to maintain temperatures of 61° to 72° F. and relative humidity between 30% and 70%. Room temperature and humidity are recorded hourly, and monitored daily. There are approximately 10-15 air exchanges per hour in the animal rooms. Photoperiod is 12-hr light/12-hr dark (via fluorescent lighting) with exceptions as necessary to accommodate dosing and data collection. Routine daily observations are performed. Harlan Teklad, Certified Diet (2030C), rabbit diet is provided approximately 180 grams per day from arrival to the facility. […]
In all cases, treatments are started approximately 10 min after the onset of a 30 min ischemic insult (coronary occlusion) and continued for up to 3 h following reperfusion. In all cases, cardiovascular function is monitored both prior to and during ischemia, as well as for up to 180 min (3 h) post-reperfusion. The experiments are terminated 3 h post-reperfusion (end of study); irreversible myocardial injury (infarct size by histomorphometery) at this time-point is evaluated, and is the primary-end-point of the study. […]

Test [2] relates to cardiac ischemia-reperfusion injury. As to the kind of experiment: Large animal model of acute myocardial infarction injury (cardiac ischemia-reperfusion). It counts as in vivo, sheep or pig. To be noted: peptide given prior to ischemia. The method, then:
The effects of aromatic-cationic peptides and cardiovascular agent in protecting against cardiac ischemia-reperfusion injury in a large animal model (e.g., a porcine or ovine model) are investigated.
The animals are sedated with intramuscular ketamine (50 mg/kg), glycopyrrolate (0.2 mg/kg), and buprenorphine (0.05 mg/kg). After intubation, animals are ventilated with a mechanical respirator (Hallowell EMC Model AWS; Hallowell, Pittsfield, Mass.) using room air enriched with 0.6 L/min oxygen. Catheters are introduced into a small auricular artery and vein, and into the right jugular vein for the continuous measurement of blood pressure and the administration of intravenous medications. […] Heart rate, blood pressure, surface electrocardiogram, and rectal temperature are continuously monitored (Hewlett Packard 78534C; Palo Alto, Calif.). […]
Animals undergo a left thoracotomy, and silicone vascular loops (Quest Medical, Allen, Tex.) are placed around the left anterior descending artery and its second diagonal branch, which is 40% of the distance from the apex to the base of the heart. […] Arterial blood pressure, heart rate, surface electrocardiograms (ECG), and rectal temperature are continuously monitored (Hewlett Packard 78534C; Palo Alto, Calif.) throughout the protocol in all animals. […]

One substance from patent US20160175379A1, “COMBINATION THERAPY FOR THE TREATMENT OF ISCHEMIA-REPERFUSION INJURY” (STEALTH BIO THERAPEUTICS CORP, priority 2013, published 2016) can be followed below.

For D-Arg-2′6′-Dmt-Lys-Phe-NH2 [peptide], the “infarct size and apoptotic cell death” value in test [1] is reported as “significantly reduced”. Further, in test [2], the “redox ratio (RR) during ischemia” value is “blunted drop in the RR during ischemia”.
